Results as given in patent US20240270750A1, “IMIDAZOLE-CONTAINING INHIBITORS OF ALK2 KINASE” (BioCryst Pharmaceuticals, Inc., priority 2021, published 2024).

Target: T1, ALK2 (Homo sapiens, UniProt Q04771)
T1 construct: purchased ThermoFisher Scientific (Life Technologies)
T1 sequence (Q04771 21-509): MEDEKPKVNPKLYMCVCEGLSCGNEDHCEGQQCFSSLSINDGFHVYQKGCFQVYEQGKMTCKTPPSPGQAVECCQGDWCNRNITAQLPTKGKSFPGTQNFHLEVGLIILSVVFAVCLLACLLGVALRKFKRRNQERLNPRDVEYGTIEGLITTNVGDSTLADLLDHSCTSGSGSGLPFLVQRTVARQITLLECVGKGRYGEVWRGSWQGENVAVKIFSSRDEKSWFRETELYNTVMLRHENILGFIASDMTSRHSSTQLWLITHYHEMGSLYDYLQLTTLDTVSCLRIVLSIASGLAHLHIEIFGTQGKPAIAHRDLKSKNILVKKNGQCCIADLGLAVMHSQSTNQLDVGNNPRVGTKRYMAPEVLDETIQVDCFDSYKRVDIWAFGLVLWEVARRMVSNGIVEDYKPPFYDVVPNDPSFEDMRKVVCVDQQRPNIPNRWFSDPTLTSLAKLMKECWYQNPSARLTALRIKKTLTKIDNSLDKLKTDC
Assay: LanthaScreen Eu Kinase Binding Assay, ALK2 inhibition
Conditions: 1 micromolar concentration
Method: Biochemical assays to measure the inhibitory effects of the compounds were performed by ThermoFisher Scientific (Life Technologies). ALK2 inhibition was tested using LanthaScreen™ Eu Kinase Binding Assay screening protocol.

Inhibition at 1 µM, > 50%:
CC[C@@H](C)n1ncc2c(Nc3cn(-c4cc(OC)c(OC)c(OC)c4)cn3)nc(C(C)C)nc21 (single isomer, unassigned) [Compound 19d]
COc1cc(-n2cnc(Nc3nc(C4CCC4)nc4c3cnn4C(C)C)c2)cc(OC)c1OC [Compound 35d, 6-cyclobutyl-1-isopropyl-N-(1-(3,4,5-trimethoxyphenyl)-1H-imidazol-4-yl)-1H-pyrazolo[3,4-d]pyrimidin-4-amine]
COc1cc(-n2cnc(Nc3nc(C(C)(C)C)nc4c3cnn4C(C)C)c2)cc(OC)c1OC [Compound 32d, 6-(tert-butyl)-1-isopropyl-N-(1-(3,4,5-trimethoxyphenyl)-1H-imidazol-4-yl)-1H-pyrazolo[3,4-d]pyrimidin-4-amine]
COc1cc(-n2cnc(Nc3nc(C)nc4c3cnn4C(C)C)c2)cc(OC)c1OC [Compound 31b, 1-isopropyl-6-methyl-N-(1-(3,4,5-trimethoxyphenyl)-1H-imidazol-4-yl)-1H-pyrazolo[3,4-d]pyrimidin-4-amine]
COc1cc(-n2cnc(Nc3nc(C(C)C)nc4ccccc34)c2)cc(OC)c1OC [Compound 73a, 2-isopropyl-N-(1-(3,4,5-trimethoxyphenyl)-1H-imidazol-4-yl)quinazolin-4-amine]
COc1cc(-n2cnc(Nc3nc(C4CCN(C(=O)OC(C)(C)C)C4)nc4c3cnn4C(C)C)c2)cc(OC)c1OC (stereo not shown) [Compound 41a, tert-butyl 3-(1-isopropyl-4-((1-(3,4,5-trimethoxyphenyl)-1H-imidazol-4-yl)amino)-1H-pyrazolo[3,4-d]pyrimidin-6-yl)pyrrolidine-1-carboxylate]
COc1cc(-n2cnc(Nc3nc(C(C)C)nc4c3CCCC4)c2)cc(OC)c1OC [Compound 89a, 2-isopropyl-N-(1-(3,4,5-trimethoxyphenyl)-1H-imidazol-4-yl)-5,6,7,8-tetrahydroquinazolin-4-amine]
COc1cc(-n2cnc(Nc3nc(C4CC4)nc4c3cnn4C34CC(C3)C4)c2)cc(OC)c1OC [Compound 118f, 1-(bicyclo[1.1.1]pentan-1-yl)-6-cyclopropyl-N-(1-(3,4,5-trimethoxyphenyl)-1H-imidazol-4-yl)-1H-pyrazolo[3,4-d]pyrimidin-4-amine]
COc1cc(-n2cnc(Nc3nc(C(C)C)nc4scnc34)c2)cc(OC)c1OC [Compound 93a, 5-isopropyl-N-(1-(3,4,5-trimethoxyphenyl)-1H-imidazol-4-yl)thiazolo[5,4-d]pyrimidin-7-amine]
COc1cc(-n2cnc(Nc3nc(C)c4cnn(C(C)C)c4n3)c2)cc(OC)c1OC [Compound 11b, 1-isopropyl-4-methyl-N-(1-(3,4,5-trimethoxyphenyl)-1H-imidazol-4-yl)-1H-pyrazolo[3,4-d]pyrimidin-6-amine]
COc1cc(-n2cnc(Nc3nc(C4CC4)nc4c3cnn4C(C)(C)C)c2)cc(OC)c1OC [Compound 112d, 1-(tert-butyl)-6-cyclopropyl-N-(1-(3,4,5-trimethoxyphenyl)-1H-imidazol-4-yl)-1H-pyrazolo[3,4-d]pyrimidin-4-amine]
C=Cc1nc(Nc2cn(-c3cc(OC)c(OC)c(OC)c3)cn2)c2cnn(C(C)C)c2n1 [Compound 104a, 1-isopropyl-N-(1-(3,4,5-trimethoxyphenyl)-1H-imidazol-4-yl)-6-vinyl-1H-pyrazolo[3,4-d]pyrimidin-4-amine]
COc1cc(-n2cnc(Nc3nc(C(C)C)nc4sccc34)c2)cc(OC)c1OC [Compound 81a, 2-isopropyl-N-(1-(3,4,5-trimethoxyphenyl)-1H-imidazol-4-yl)thieno[2,3-d]pyrimidin-4-amine]
COc1cc(-n2cnc(Nc3nc(CC4CC4)nc4c3cnn4C(C)C)c2)cc(OC)c1OC [Compound 34d, 6-(cyclopropylmethyl)-1-isopropyl-N-(1-(3,4,5-trimethoxyphenyl)-1H-imidazol-4-yl)-1H-pyrazolo[3,4-d]pyrimidin-4-amine]
COc1cc(-n2cnc(Nc3nc(C(C)C)nc4c3cnn4C3CCOC3)c2)cc(OC)c1OC (stereo not shown) [Compound 21c, 6-isopropyl-1-(tetrahydrofuran-3-yl)-N-(1-(3,4,5-trimethoxyphenyl)-1H-imidazol-4-yl)-1H-pyrazolo[3,4-d]pyrimidin-4-amine]
COc1cc(-n2cnc(Nc3nc(C(C)CC(=O)NC4CC4)nc4c3cnn4C(C)C)c2)cc(OC)c1OC (stereo not shown) [Compound 107a, N-cyclopropyl-3-(1-isopropyl-4-((1-(3,4,5-trimethoxyphenyl)-1H-imidazol-4-yl)amino)-1H-pyrazolo[3,4-d]pyrimidin-6-yl)butanamide]
COc1cc(-n2cnc(Nc3nc(C4CC4)nc4c3cnn4C(C)C)c2)cc(OC)c1OC [Compound 7e, 6-cyclopropyl-1-isopropyl-N-(1-(3,4,5-trimethoxyphenyl)-1H-imidazol-4-yl)-1H-pyrazolo[3,4-d]pyrimidin-4-amine]
COc1cc(-n2cnc(Nc3nc(C(C)C)c4ccccc4n3)c2)cc(OC)c1OC [Compound 56a, 4-isopropyl-N-(1-(3,4,5-trimethoxyphenyl)-1H-imidazol-4-yl)quinazolin-2-amine]
COc1cc(-n2cnc(Nc3nc(C4CC(OCc5ccccc5)C4)nc4c3cnn4C(C)C)c2)cc(OC)c1OC (stereo not shown) [Compound 57e, 6-(3-(benzyloxy)cyclobutyl)-1-isopropyl-N-(1-(3,4,5-trimethoxyphenyl)-1H-imidazol-4-yl)-1H-pyrazolo[3,4-d]pyrimidin-4-amine]
CCn1ncc2c(Nc3cn(-c4cc(OC)c(OC)c(OC)c4)cn3)nc(C3CC3)nc21 [Compound 113d, 6-cyclopropyl-1-ethyl-N-(1-(3,4,5-trimethoxyphenyl)-1H-imidazol-4-yl)-1H-pyrazolo[3,4-d]pyrimidin-4-amine]
COc1cc(-n2cnc(Nc3nc(C(F)(F)F)nc4c3cnn4C(C)C)c2)cc(OC)c1OC [Compound 26a, 1-isopropyl-6-(trifluoromethyl)-N-(1-(3,4,5-trimethoxyphenyl)-1H-imidazol-4-yl)-1H-pyrazolo[3,4-d]pyrimidin-4-amine]
C=C(C)c1nc(Nc2cn(-c3cc(OC)c(OC)c(OC)c3)cn2)c2scc(C)c2n1 [Compound 92c, 7-methyl-2-(prop-1-en-2-yl)-N-(1-(3,4,5-trimethoxyphenyl)-1H-imidazol-4-yl)thieno[3,2-d]pyrimidin-4-amine]
COc1cc(-n2cnc(Nc3nc(C(C)C)nc4c3cnn4-c3ccc(F)cc3F)c2)cc(OC)c1OC [Compound 42d, 1-(2,4-difluorophenyl)-6-isopropyl-N-(1-(3,4,5-trimethoxyphenyl)-1H-imidazol-4-yl)-1H-pyrazolo[3,4-d]pyrimidin-4-amine]
COc1cc(-n2cnc(Nc3nc(C(C)C)nc4c3cnn4CC(C)C)c2)cc(OC)c1OC [Compound 20c, 1-isobutyl-6-isopropyl-N-(1-(3,4,5-trimethoxyphenyl)-1H-imidazol-4-yl)-1H-pyrazolo[3,4-d]pyrimidin-4-amine]
COc1cc(-n2cnc(Nc3nc(C4CC4)nc4c3cnn4CC3CC3)c2)cc(OC)c1OC [Compound 120f, 6-cyclopropyl-1-(cyclopropylmethyl)-N-(1-(3,4,5-trimethoxyphenyl)-1H-imidazol-4-yl)-1H-pyrazolo[3,4-d]pyrimidin-4-amine]
CC[C@H](C)n1ncc2c(Nc3cn(-c4cc(OC)c(OC)c(OC)c4)cn3)nc(C(C)C)nc21 (single isomer, unassigned) [Compound 22d]
CCn1ncc2c(Nc3cn(-c4cc(OC)c(OC)c(OC)c4)cn3)nc(C(C)C)nc21 [Compound 23c, 1-ethyl-6-isopropyl-N-(1-(3,4,5-trimethoxyphenyl)-1H-imidazol-4-yl)-1H-pyrazolo[3,4-d]pyrimidin-4-amine]
COc1cc(-n2cnc(Nc3nc(C4CC(O)C4)nc4c3cnn4C(C)C)c2)cc(OC)c1OC (stereo not shown) [Compound 58a, 3-(1-isopropyl-4-((1-(3,4,5-trimethoxyphenyl)-1H-imidazol-4-yl)amino)-1H-pyrazolo[3,4-d]pyrimidin-6-yl)cyclobutanol]
COc1cc(-n2cnc(Nc3nc(C(C)CC(=O)O)nc4c3cnn4C(C)C)c2)cc(OC)c1OC (stereo not shown) [Compound 106a, 3-(1-isopropyl-4-((1-(3,4,5-trimethoxyphenyl)-1H-imidazol-4-yl)amino)-1H-pyrazolo[3,4-d]pyrimidin-6-yl)butanoic acid]
COc1cc(-n2cnc(Nc3nc(C(C)C)nc4c3cnn4-c3ccc(F)cc3)c2)cc(OC)c1OC [Compound 1f, 1-(4-fluorophenyl)-6-isopropyl-N-(1-(3,4,5-trimethoxyphenyl)-1H-imidazol-4-yl)-1H-pyrazolo[3,4-d]pyrimidin-4-amine]
COc1cc(-n2cnc(Nc3nc(C4CC4)nc4c3cnn4C)c2)cc(OC)c1OC [Compound 114e, 6-cyclopropyl-1-methyl-N-(1-(3,4,5-trimethoxyphenyl)-1H-imidazol-4-yl)-1H-pyrazolo[3,4-d]pyrimidin-4-amine]
